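Compound exposure: 48 hours, 5 concentrations, 96-well plates. The concentration for full growth arrest is given as TGI.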
Columns and labels:
Assay in all cases: DTP human tumour cell line panel, 48 h
BT-549 breast = tested on: BT-549 breast
OVCAR-3 ovarian = tested on: OVCAR-3 ovarian
SK-MEL-5 melanoma = tested on: SK-MEL-5 melanoma
HT29 colon = tested on: HT29 colon
MCF7 breast = tested on: MCF7 breast
OVCAR-8 ovarian = tested on: OVCAR-8 ovarian
SF-268 CNS = tested on: SF-268 CNS
ACHN renal = tested on: ACHN renal
UACC-62 melanoma = tested on: UACC-62 melanoma
MOLT-4 leukemia = tested on: MOLT-4 leukemia
HCT-15 colon = tested on: HCT-15 colon
HCT-116 colon = tested on: HCT-116 colon
HOP-92 NSCLC = tested on: HOP-92 NSCLC
SR leukemia = tested on: SR leukemia
A498 renal = tested on: A498 renal
786-0 renal = tested on: 786-0 renal
A549 NSCLC = tested on: A549 NSCLC
CCRF-CEM leukemia = tested on: CCRF-CEM leukemia
SNB-19 CNS = tested on: SNB-19 CNS
HL-60(TB) leukemia = tested on: HL-60(TB) leukemia

| SMILES | TGI (BT-549 breast) [µM] | TGI (OVCAR-3 ovarian) [µM] | TGI (SK-MEL-5 melanoma) [µM] | TGI (HT29 colon) [µM] | TGI (MCF7 breast) [µM] | TGI (OVCAR-8 ovarian) [µM] | TGI (SF-268 CNS) [µM] | TGI (ACHN renal) [µM] | TGI (UACC-62 melanoma) [µM] | TGI (MOLT-4 leukemia) [µM] | TGI (HCT-15 colon) [µM] | TGI (HCT-116 colon) [µM] | TGI (HOP-92 NSCLC) [µM] | TGI (SR leukemia) [µM] | TGI (A498 renal) [µM] | TGI (786-0 renal) [µM] | TGI (A549 NSCLC) [µM] | TGI (CCRF-CEM leukemia) [µM] | TGI (SNB-19 CNS) [µM] | TGI (HL-60(TB) leukemia) [µM] |
| --- | --- | --- | --- | --- | --- | --- | --- | --- | --- | --- | --- | --- | --- | --- | --- | --- | --- | --- | --- | --- |
| O=C(Nc1ccc2ccccc2c1)Nn1cnnc1 | > 100 | > 100 | > 100 | > 100 | > 100 | > 100 | > 100 | > 100 | > 100 | > 100 | > 100 | > 100 | > 100 | > 100 | > 100 | > 100 | > 100 | > 100 | > 100 | > 100 |
| COC(=O)C1=C(OC(=O)/C(=C/c2ccc(Cl)cc2)c2ccccc2)C(C(=O)OC)[C@@]2(O)[C@@H](C(=O)OC)[C@H](C)C[C@@H]1[C@@H]2C(=O)OC (stereo not given in full) | > 100 | > 100 | > 100 | > 100 | > 100 | > 100 | > 100 | > 100 | > 100 | > 100 | > 100 | > 100 | > 100 | > 100 | > 100 | > 100 | > 100 | > 100 | > 100 | > 100 |
| O=C1c2ccccc2C2(c3ccc(Cl)cc3)NCc3ccccc3CN12 (stereo not given) | > 100 | 26.6 | 29.5 | 28.5 | 40 | 60.8 | > 100 | 51.6 | 33.5 | 91.7 | 60.7 | 22.6 | 56 | > 100 | 42.8 | 26.4 | 43.8 | 86.2 | 51.6 | 40.6 |
| O=C1Nc2ccccc2NC1C1OC(c2ccccc2)=CC1=O (stereo not given) | > 100 | > 100 | > 100 | > 100 | > 100 | > 100 | > 100 | > 100 | > 100 | > 100 | > 100 | > 100 | > 100 | > 100 | > 100 | > 100 | > 100 | > 100 | > 100 | > 100 |
| Cc1ccc(S(=O)(=Nc2ccccc2)C(C(C)C)C(C)(C)Cl)cc1 (stereo not given) | > 50 | > 50 | 16.7 | > 50 | > 50 | > 50 | > 50 | > 50 | > 50 | 32.3 | > 50 | > 50 | > 50 | 49.7 | > 50 | > 50 | > 50 | > 50 | > 50 | 22 |
| N=C1N=C(N)c2cc3c(cc21)SCCSCCCSCCS3 | 31.4 | 28.4 | 31.7 | > 48.6 | > 55.7 | 41.3 | 32.4 | 28.2 | > 54.7 | 32.5 | 32.3 | 23.6 | > 54.7 | 37.6 | > 69.6 | 32.6 | 49.8 | > 25.9 | 32.3 | 20.6 |
| O=C(c1ccc(Cl)cc1)N(Cc1cccnc1)C(=S)N(Cc1cccnc1)C(=O)c1ccc(Cl)cc1 | 51 | > 100 | 90.1 | 76.9 | > 100 | 85.3 | 79.5 | > 100 | > 100 | > 100 | > 100 | 80.3 | > 100 | > 100 | 91.5 | 48.2 | > 100 | > 100 | > 100 | 85.2 |
| CC(=O)NC1C(OCc2ccccc2)OC(CO)C(O)C1OCC(=O)NC(C)C(=O)NC(CCC(=O)NCCCCCC(=O)Nc1ccc2c(c1)CN1C(=O)c3ccccc3C1=N2)C(N)=O (stereo not given) | > 100 | > 100 | > 100 | > 100 | > 100 | > 100 | > 100 | > 100 | > 100 | > 100 | > 100 | > 100 | 90.9 | 42.5 | > 100 | > 100 | > 100 | > 100 | > 100 | > 100 |

Source: PubChem BioAssay (NCI)
